One assay has as its system FIH. The settings on record: ref [22], [23]; cited from earlier work.
The target of assay [1] is T1, R132H IDH1 (Homo sapiens, UniProt O75874, R132H). The assay is described as follows: Absorbance assay, variant activity in the presence of equimolar 2OG (inhibition screen). The format is biochemical. To be noted: […] 2OG and […] test compound, 0.03 μM R132H IDH1, 50 μM NADPH. Also noted: made in house; host or cells: Escherichia coli BL21(DE3) pLyS. The method, boiled down: (§1)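 Reactions were run as technical quadruplicates. Compounds were dispensed with a simultaneous pipettor, and each assay was started by adding reagent from a bulk dispenser.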
T1 sequence (O75874 whole entry R132H): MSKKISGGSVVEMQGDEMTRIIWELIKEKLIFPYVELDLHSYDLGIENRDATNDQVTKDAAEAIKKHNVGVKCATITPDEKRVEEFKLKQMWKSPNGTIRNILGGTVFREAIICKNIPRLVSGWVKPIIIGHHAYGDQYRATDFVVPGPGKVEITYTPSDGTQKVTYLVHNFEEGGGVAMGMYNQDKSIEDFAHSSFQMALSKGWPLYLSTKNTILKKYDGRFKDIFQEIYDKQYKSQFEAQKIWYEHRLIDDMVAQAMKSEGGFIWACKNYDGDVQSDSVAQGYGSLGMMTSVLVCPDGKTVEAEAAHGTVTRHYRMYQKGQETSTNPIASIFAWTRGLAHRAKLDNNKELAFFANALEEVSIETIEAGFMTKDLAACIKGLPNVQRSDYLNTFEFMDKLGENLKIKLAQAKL

Assay [2] concerns the target T1, R132H IDH1. Description: Absorbance assay, IC50 determination. The format is biochemical. Also noted: made in house; host or cells: Escherichia coli BL21(DE3) pLyS. As for the experimental part:
(§2) The reactivity of WT IDH1/2 and oncogenic IDH1/2 variants was assayed at ambient temperature by continuously monitoring the concentration-dependent change in absorbance ([…]) of NADPH using a PheraStar FS or a CLARIOstar Plus plate reader (BMG Labtech). Enzyme reactions (60 μL total reaction volume) were performed in clear 384-well UV-STAR plates (Greiner Bio-one, #781801). Compounds were dispensed using a CyBio SDW-CW CyBi-Well Simultaneous Pipettor and assay started using a ThermoFisher Multidrop Combi reagent dispenser.
(§3) Final assay concentrations were as follows: 30 nM IDH1/2 variant and 50 μM NADPH. […] Reactions were performed as technical quadruplicates, and all assays were carried out in two independent duplicates. GraphPad Prism (version 5.04) was used for data analysis and to determine the IC50 values.

Assay [3] addresses T2, WT IDH1 (Homo sapiens, UniProt O75874).
T2 construct: made in house; host or cells: Escherichia coli BL21(DE3) pLyS
The assay is described as follows: Absorbance assay, substrate activity in the absence of DL-isocitrate. The format is biochemical. The settings on record: no DL-isocitrate; […] test compound, 75 μM NADP+, 2.0 nM WT IDH1; compared to DL-isocitrate. Put shortly: as §1

In assay [4] the target is T3, WT IDH2 (Homo sapiens, UniProt P48735).
T3 construct: made in house; host or cells: Sf21 insect cells (cell pellets prepared at Evotec)
T3 sequence (P48735 40-452): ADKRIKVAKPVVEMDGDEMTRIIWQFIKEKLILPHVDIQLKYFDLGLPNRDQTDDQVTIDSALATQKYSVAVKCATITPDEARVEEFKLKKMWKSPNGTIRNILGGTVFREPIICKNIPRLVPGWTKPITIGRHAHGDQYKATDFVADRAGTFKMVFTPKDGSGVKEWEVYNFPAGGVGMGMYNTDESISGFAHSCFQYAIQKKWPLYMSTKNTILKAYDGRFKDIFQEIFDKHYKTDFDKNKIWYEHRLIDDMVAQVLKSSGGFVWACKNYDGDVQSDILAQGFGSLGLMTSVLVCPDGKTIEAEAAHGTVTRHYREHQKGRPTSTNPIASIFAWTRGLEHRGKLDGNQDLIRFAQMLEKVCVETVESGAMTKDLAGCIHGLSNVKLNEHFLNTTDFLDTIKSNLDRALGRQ
The description is as above. The format is biochemical. The settings on record: no DL-isocitrate; […] test compound, 75 μM NADP+, 2.0 nM WT IDH2; compared to DL-isocitrate. The method, boiled down:
as §1

Assay [5] has as its target T4, R140Q IDH2 (Homo sapiens, UniProt P48735, R140Q).
T4 construct: made in house; host or cells: Sf21 insect cells (cell pellets prepared at Evotec)
T4 sequence (P48735 40-452 R140Q): T3 sequence (P48735 40-452) with R101Q
The assay is described as follows: Absorbance assay, IC50 determination. The format is biochemical. As for the experimental part: as §2, §3

In assay [6] the target is T5, R172K IDH2 (Homo sapiens, UniProt P48735, R172K).
T5 construct: made in house; host or cells: Sf21 insect cells (cell pellets prepared at Evotec)
T5 sequence (P48735 40-452 R172K): T3 sequence (P48735 40-452) with R133K
The assay is described as follows: Absorbance assay, IC50 determination. The format is biochemical. As for the experimental part: as §2, §3

In assay [7] the target is T2, WT IDH1. The assay is described as follows: Absorbance assay, WT activity in the presence of equimolar DL-isocitrate (inhibition). The settings on record: […] isocitrate and […] test compound, 75 μM NADP+, 2.0 nM WT IDH1. The format is biochemical. The method, boiled down:
as §1

The target in assay [8] is T3, WT IDH2. The assay is described as above. The format is biochemical. To be noted: […] isocitrate and […] test compound, 75 μM NADP+, 2.0 nM WT IDH2. Put shortly:
as §1

Assay [9] deals with T4, R140Q IDH2. Description: Absorbance assay, variant activity in the presence of equimolar 2OG (inhibition screen). The format is biochemical. The settings on record: for activity [%] (%-substrate conversion after 20 min incubation): 6.0 mM 2OG and 6.0 mM test compound, 0.03 μM R140Q IDH2, 50 μM NADPH. The method, boiled down: as §1
Assay [10] concerns the target T5, R172K IDH2. Described as above. The format is biochemical. The settings on record: for activity [%] (%-substrate conversion after 20 min incubation): 1.0 mM 2OG and 1.0 mM test compound, 0.03 μM R172K IDH2, 50 μM NADPH. Put shortly: as §1
In assay [11] the target is T4, R140Q IDH2. Description: Absorbance assay (NADPH consumption), substrate turnover in the absence of 2OG. The format is biochemical. To be noted: no 2OG; 6.0 mM test compound, 0.03 μM R140Q IDH2, 50 μM NADPH; 2OG = 100. The method, boiled down: as §1
For assay [12], the target named is T5, R172K IDH2. Described as above. The format is biochemical. The settings on record: no 2OG; 1.0 mM test compound, 0.03 μM R172K IDH2, 50 μM NADPH; 2OG = 100. Put shortly:
as §1

Assay [13] has as its target T1, R132H IDH1. The assay is described as above. The format is biochemical. Also noted: made in house; host or cells: Escherichia coli BL21(DE3) pLyS. To be noted: no 2OG; […] test compound, 0.03 μM R132H IDH1, 50 μM NADPH; 2OG = 100. The method, boiled down: as §1
Assay [14] relates to glutamic oxaloacetic aminotransferase. Also on record: method as in earlier work. The settings on record: ref [66]; cited from earlier work.
The subject of another assay is AspH. The settings on record: ref [22], [23]; cited from earlier work.

The values that follow come from publication PMC9939733 (The Journal of Biological Chemistry, 2023).

SMILES strings stand for the structures. Positions count from the first letter of the chain named. pIC50: −log10 of the molar value. Where two headings read alike, the source gives them in different places.

What is called pIC50 is the IC50 on a negative log10 scale, so that one unit is a factor of ten. Read a high pIC50 as a low IC50. As usually defined, the inhibition is how much of the control response was suppressed.

T2 sequence (O75874 whole entry): as the sequence (O75874 whole entry R132H) above, with H132R counted along it

Consider `CC1(C)c2ccccc2-c2ccc(CC(CC(=O)O)C(=O)C(=O)O)cc21` (racemic) [compound 11], for which the “inhibition of FIH” value in the assay with FIH is “potent inhibitor”. The “activity [%] (%-substrate conversion after 20 min incubation)” value (“activity [%]” for short) on R132H IDH1 [1] is on record as less than 10%; on WT IDH1 [3], less than 10%; on WT IDH2 [4], less than 10%; at WT IDH1 [7], 98±2%; at WT IDH2 [8] it was 96±2%; on R140Q IDH2 [9] it was less than 10%. Moreover, on R172K IDH2 [10], the “activity [%]” value is reported as less than 10%. The pIC50 was roughly 2.96 on R132H IDH1 [2] ([…] 2OG, 0.03 μM enzyme, 50 μM NADPH); roughly 2.78 against R140Q IDH2 [5] (6.0 mM 2OG, 0.03 μM enzyme, 50 μM NADPH); roughly 4.08 at R172K IDH2 [6] (1.0 mM 2OG, 0.03 μM enzyme, 50 μM NADPH).

For the compound `O=C(O)CNC(=O)C(=O)O` [NOG, N-oxalylglycine, reference compound], the “activity [%]” value on R140Q IDH2 [11] is listed as less than 10%; at R172K IDH2 [12] it was less than 10%; on R132H IDH1 [13], less than 10%; on R132H IDH1 [1], less than 10%; on WT IDH1 [7], 93 ± 2%; at WT IDH2 [8], 93 ± 1%. Besides, the entries for the “activity [%]” value on R140Q IDH2 [9] and at R172K IDH2 [10] were 12 ± 7% and 13 ± 4%, respectively. The pIC50 was roughly 3.73 at R132H IDH1 [2], roughly 3.21 against R140Q IDH2 [5] and roughly 3.79 at R172K IDH2 [6]. Further, the inhibition on R140Q IDH2 [9] (equimolar 2OG (6.0 mM)) and at R172K IDH2 [10] (equimolar 2OG (1.0 mM)) was no less than 90% in each case.

As to `CC(C)(CC(=O)C(=O)O)C(=O)O` [compound 13, 4,4-dimethyl-2OG], in the assay on FIH, the “inhibition of FIH” value is reported as “does not inhibit”. Moreover, in assay [14], the “substrate efficiency compared with 2OG” value is recorded as “less efficient substrate”. Besides, the “inhibition of AspH” value with AspH is reported as “efficient inhibitor”. Besides, the “activity [%]” value on R132H IDH1 [1] was 118 ± 20%; at WT IDH1 [3], less than 10%; at WT IDH2 [4], less than 10%; at WT IDH1 [7], 106±4%; on WT IDH2 [8], 101±7%; at R140Q IDH2 [9], 117 ± 6%. Further, the “activity [%]” value at R172K IDH2 [10] was determined as 106 ± 6%.
